Experimental data from ChEMBL document CHEMBL4507286 (2021).
Activity calls are given as the source filed them. The calls are words filed in the database; no cut-off is given here.

Experiments:
[1] = target: 5-hydroxytryptamine receptor 3A (Homo sapiens) (UniProt P46098); settings: Compound concentration 10.0 uM
[2] = target: Mitogen-activated protein kinase 7 (Homo sapiens) (UniProt Q13164)
[3] = tested on: Phosphatidylinositol 4,5-bisphosphate 3-kinase catalytic subunit alpha isoform (Homo sapiens), P42336 [Q546K]
[4] = target: Serine/threonine-protein kinase MAK (Homo sapiens) (UniProt P20794)
[5] = target: Beta-1 adrenergic receptor (Homo sapiens) (UniProt P08588); settings: Compound concentration 10.0 uM
[6] = target: Leucine-rich repeat serine/threonine-protein kinase 2 (Homo sapiens) (UniProt Q5S007)
[7] = target: Mitogen-activated protein kinase kinase kinase 9 (Homo sapiens) (UniProt P80192)
[8] = target: Beta-adrenergic receptor kinase 1 (Homo sapiens) (UniProt P25098)
[9] = target: Serine/threonine-protein kinase DCLK3 (Homo sapiens) (UniProt Q9C098)
[10] = target: Serine/threonine-protein kinase 26 (Homo sapiens, UniProt Q9P289)
[11] = target: Serine/threonine-protein kinase WNK2 (Homo sapiens) (UniProt Q9Y3S1)
[12] = target: Ephrin type-A receptor 1 (Homo sapiens) (UniProt P21709)
[13] = target: Mitogen-activated protein kinase kinase kinase kinase 1 (Homo sapiens) (UniProt Q92918)
[14] = target: Serine/threonine-protein kinase 32B (Homo sapiens) (UniProt Q9NY57)
[15] = target: Casein kinase II subunit alpha' (Homo sapiens) (UniProt P19784)
[16] = target: Ephrin type-A receptor 6 (Homo sapiens) (UniProt Q9UF33)
[17] = tested on: Proto-oncogene tyrosine-protein kinase receptor Ret (Homo sapiens), P07949 [V804M]
[18] = target: Megakaryocyte-associated tyrosine-protein kinase (Homo sapiens) (UniProt P42679)
[19] = target: Mitogen-activated protein kinase 14 (Homo sapiens) (UniProt Q16539)
[20] = target: Interleukin-1 receptor-associated kinase 4 (Homo sapiens) (UniProt Q9NWZ3)
[21] = target: Serine/threonine-protein kinase WNK1 (Homo sapiens) (UniProt Q9H4A3)
[22] = target: Mitogen-activated protein kinase kinase kinase 5 (Homo sapiens) (UniProt Q99683)
[23] = target: Serine/threonine-protein kinase 3 (Homo sapiens) (UniProt Q13188)
[24] = tested on: eIF-2-alpha kinase GCN2 (Homo sapiens), Q9P2K8 [S808G]
[25] = target: Phosphatidylinositol 4-kinase beta (Homo sapiens) (UniProt Q9UBF8)
[26] = tested on: Receptor-type tyrosine-protein kinase FLT3 (Homo sapiens), P36888 [UNDEFINED MUTATION]
[27] = tested on: Phosphatidylinositol 4,5-bisphosphate 3-kinase catalytic subunit alpha isoform (Homo sapiens), P42336 [H1047L]
[28] = target: Mitogen-activated protein kinase kinase kinase 15 (Homo sapiens) (UniProt Q6ZN16)
[29] = target: Dual specificity protein kinase TTK (Homo sapiens) (UniProt P33981)
[30] = target: Mitogen-activated protein kinase 8 (Homo sapiens) (UniProt P45983)
[31] = target: Homeodomain-interacting protein kinase 1 (Homo sapiens) (UniProt Q86Z02)
[32] = target: Cyclin-dependent kinase 18 (Homo sapiens) (UniProt Q07002)
[33] = target: Kappa-type opioid receptor (Homo sapiens) (UniProt P41145); settings: Compound concentration 10.0 uM
[34] = tested on: Tyrosine-protein kinase ABL1 (Homo sapiens), P00519 [H396P]
[35] = target: Ribosomal protein S6 kinase alpha-2 (Homo sapiens) (UniProt Q15349)
[36] = target: Mitogen-activated protein kinase kinase kinase 1 (Homo sapiens) (UniProt Q13233)
[37] = tested on: Epidermal growth factor receptor (Homo sapiens), P00533 [L858R]
[38] = target: Serine/threonine-protein kinase Nek2 (Homo sapiens) (UniProt P51955)
[39] = target: Serine/threonine-protein kinase STK11 (Homo sapiens) (UniProt Q15831)
[40] = target: Serine/threonine-protein kinase RIO1 (Homo sapiens) (UniProt Q9BRS2)
[41] = target: Protein kinase C iota type (Homo sapiens) (UniProt P41743)
[42] = target: Ribosomal protein S6 kinase alpha-2 (Homo sapiens) (UniProt Q15349); remark: listed apart in the source
[43] = target: Mitogen-activated protein kinase kinase kinase kinase 4 (Homo sapiens) (UniProt O95819)
[44] = target: Tyrosine-protein kinase TXK (Homo sapiens) (UniProt P42681)
[45] = target: Mitogen-activated protein kinase 1 (Homo sapiens, UniProt P28482); assay: ERK Biochemical Assay
[46] = Compound concentration 100.0 nM
[47] = Compound concentration 1000.0 nM

Chain of Ribosomal protein S6 kinase alpha-2 (Homo sapiens) (Q15349 whole entry): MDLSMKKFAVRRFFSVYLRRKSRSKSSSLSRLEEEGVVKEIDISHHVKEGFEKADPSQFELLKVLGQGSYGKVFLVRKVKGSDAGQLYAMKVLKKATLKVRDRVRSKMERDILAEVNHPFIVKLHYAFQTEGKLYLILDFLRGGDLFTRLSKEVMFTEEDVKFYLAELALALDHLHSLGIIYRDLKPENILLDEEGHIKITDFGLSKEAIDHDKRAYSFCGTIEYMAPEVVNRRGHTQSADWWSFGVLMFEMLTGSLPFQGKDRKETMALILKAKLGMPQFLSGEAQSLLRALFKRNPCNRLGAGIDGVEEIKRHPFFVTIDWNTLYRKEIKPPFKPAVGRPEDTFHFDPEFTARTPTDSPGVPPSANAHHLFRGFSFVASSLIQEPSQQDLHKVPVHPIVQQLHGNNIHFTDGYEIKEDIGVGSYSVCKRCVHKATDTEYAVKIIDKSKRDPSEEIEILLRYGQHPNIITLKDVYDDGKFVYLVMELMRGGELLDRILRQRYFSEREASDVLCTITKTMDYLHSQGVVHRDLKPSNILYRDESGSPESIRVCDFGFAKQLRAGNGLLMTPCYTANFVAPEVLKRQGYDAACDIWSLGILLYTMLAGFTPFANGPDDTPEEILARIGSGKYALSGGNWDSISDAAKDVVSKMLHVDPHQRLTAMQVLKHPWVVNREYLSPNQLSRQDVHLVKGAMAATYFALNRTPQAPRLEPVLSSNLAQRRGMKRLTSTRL
Chain of Protein kinase C iota type (Homo sapiens) (P41743 whole entry): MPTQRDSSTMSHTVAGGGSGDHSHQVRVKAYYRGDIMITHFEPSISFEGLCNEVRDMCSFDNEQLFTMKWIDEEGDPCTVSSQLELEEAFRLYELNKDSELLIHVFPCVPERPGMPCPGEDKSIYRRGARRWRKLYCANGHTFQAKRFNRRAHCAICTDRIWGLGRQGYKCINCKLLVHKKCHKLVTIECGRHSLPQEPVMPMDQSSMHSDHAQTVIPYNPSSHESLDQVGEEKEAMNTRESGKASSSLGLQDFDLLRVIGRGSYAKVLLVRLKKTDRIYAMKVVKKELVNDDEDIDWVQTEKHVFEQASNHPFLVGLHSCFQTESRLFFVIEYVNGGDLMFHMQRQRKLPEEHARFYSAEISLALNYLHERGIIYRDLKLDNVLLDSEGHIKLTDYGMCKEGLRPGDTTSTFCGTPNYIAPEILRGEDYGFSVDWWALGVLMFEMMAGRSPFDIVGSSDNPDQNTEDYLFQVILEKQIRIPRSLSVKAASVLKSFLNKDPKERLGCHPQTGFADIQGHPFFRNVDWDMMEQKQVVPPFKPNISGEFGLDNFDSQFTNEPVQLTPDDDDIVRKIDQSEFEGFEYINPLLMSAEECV
Chain of Mitogen-activated protein kinase kinase kinase kinase 1 (Homo sapiens) (Q92918 whole entry, looked up): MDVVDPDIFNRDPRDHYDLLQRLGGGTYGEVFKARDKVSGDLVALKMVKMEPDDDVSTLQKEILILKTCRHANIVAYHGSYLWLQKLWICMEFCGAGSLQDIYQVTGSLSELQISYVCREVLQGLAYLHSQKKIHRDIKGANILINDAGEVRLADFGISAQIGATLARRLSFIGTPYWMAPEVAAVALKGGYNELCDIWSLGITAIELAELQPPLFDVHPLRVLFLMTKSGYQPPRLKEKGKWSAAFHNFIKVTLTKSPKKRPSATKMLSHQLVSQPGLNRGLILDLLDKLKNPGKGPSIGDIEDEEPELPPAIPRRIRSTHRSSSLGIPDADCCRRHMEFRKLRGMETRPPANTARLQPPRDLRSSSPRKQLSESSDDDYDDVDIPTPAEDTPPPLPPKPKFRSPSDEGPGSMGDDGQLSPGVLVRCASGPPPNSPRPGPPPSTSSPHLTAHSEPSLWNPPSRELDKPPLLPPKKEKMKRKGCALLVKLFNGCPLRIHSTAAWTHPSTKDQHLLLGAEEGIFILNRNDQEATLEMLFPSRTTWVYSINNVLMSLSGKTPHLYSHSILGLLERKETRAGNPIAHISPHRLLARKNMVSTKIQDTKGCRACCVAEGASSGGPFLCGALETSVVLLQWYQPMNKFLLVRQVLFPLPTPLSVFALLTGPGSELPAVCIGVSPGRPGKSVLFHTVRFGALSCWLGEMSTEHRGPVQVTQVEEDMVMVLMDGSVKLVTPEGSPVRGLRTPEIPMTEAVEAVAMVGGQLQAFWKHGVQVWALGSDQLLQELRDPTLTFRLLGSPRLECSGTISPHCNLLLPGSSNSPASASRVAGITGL
Chain of Proto-oncogene tyrosine-protein kinase receptor Ret (Homo sapiens), P07949 [V804M] (P07949 whole entry V804M): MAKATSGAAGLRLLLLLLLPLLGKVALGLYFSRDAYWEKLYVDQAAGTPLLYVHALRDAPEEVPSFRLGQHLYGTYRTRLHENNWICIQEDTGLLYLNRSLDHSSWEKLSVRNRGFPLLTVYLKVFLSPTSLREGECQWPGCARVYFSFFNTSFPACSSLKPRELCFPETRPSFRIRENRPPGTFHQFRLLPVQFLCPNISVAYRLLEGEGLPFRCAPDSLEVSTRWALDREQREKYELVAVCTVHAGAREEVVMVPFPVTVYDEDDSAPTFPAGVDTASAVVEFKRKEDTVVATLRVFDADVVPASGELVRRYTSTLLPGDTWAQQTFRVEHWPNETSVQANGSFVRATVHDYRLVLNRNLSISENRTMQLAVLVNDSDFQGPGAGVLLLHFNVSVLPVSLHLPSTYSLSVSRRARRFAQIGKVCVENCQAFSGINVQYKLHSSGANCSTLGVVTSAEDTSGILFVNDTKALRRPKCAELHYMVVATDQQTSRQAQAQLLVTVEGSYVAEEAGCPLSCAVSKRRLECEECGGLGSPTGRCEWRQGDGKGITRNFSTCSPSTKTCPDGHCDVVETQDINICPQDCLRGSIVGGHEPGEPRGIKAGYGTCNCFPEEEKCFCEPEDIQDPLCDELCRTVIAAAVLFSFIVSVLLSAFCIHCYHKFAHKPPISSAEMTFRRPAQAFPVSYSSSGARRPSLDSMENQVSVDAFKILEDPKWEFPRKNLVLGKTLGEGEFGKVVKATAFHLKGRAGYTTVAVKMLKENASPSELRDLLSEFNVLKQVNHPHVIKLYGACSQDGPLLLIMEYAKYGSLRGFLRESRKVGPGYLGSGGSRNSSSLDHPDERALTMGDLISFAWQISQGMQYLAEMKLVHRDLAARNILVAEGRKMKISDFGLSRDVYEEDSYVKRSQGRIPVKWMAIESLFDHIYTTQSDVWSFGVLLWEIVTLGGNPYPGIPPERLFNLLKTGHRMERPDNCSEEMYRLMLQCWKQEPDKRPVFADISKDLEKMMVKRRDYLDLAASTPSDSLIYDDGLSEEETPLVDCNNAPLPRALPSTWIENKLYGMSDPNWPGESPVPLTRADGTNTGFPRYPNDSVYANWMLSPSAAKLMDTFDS
Chain of Serine/threonine-protein kinase 26 (Q9P289 2-416 limits assumed): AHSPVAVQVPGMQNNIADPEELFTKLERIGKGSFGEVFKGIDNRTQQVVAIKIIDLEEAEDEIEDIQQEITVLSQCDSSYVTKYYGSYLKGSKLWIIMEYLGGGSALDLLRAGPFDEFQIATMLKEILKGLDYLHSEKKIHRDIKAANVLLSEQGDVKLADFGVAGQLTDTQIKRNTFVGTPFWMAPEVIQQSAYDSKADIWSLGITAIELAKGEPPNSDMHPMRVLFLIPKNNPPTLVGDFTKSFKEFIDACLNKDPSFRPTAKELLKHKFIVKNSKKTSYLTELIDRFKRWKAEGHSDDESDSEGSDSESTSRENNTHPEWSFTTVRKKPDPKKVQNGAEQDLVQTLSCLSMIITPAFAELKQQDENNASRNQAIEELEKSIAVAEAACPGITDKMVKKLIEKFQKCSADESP
Chain of Serine/threonine-protein kinase 32B (Homo sapiens) (Q9NY57 whole entry): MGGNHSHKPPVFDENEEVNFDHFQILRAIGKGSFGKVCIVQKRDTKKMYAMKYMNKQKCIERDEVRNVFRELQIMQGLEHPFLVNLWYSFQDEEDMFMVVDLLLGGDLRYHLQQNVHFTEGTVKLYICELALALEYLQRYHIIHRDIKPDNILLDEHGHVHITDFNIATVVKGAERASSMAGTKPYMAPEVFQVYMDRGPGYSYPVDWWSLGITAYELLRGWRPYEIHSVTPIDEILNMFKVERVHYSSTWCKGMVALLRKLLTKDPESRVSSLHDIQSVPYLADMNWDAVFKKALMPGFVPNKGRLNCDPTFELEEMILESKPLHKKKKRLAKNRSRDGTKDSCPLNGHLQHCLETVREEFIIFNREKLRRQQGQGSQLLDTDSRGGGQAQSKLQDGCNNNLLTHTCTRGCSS
Chain of Serine/threonine-protein kinase Nek2 (Homo sapiens) (P51955 whole entry): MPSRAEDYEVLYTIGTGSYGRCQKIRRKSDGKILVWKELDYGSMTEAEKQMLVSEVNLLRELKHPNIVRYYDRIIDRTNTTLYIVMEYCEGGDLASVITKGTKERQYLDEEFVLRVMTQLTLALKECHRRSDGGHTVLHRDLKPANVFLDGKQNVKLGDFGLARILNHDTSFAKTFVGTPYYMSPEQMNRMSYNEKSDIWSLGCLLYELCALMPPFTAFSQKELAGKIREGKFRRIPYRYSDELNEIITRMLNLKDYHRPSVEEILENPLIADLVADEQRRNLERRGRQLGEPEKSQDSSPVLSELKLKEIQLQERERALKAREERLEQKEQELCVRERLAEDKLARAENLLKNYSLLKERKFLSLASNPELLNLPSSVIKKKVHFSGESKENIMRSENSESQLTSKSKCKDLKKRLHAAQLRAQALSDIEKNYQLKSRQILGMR
Chain of Interleukin-1 receptor-associated kinase 4 (Homo sapiens) (Q9NWZ3 whole entry): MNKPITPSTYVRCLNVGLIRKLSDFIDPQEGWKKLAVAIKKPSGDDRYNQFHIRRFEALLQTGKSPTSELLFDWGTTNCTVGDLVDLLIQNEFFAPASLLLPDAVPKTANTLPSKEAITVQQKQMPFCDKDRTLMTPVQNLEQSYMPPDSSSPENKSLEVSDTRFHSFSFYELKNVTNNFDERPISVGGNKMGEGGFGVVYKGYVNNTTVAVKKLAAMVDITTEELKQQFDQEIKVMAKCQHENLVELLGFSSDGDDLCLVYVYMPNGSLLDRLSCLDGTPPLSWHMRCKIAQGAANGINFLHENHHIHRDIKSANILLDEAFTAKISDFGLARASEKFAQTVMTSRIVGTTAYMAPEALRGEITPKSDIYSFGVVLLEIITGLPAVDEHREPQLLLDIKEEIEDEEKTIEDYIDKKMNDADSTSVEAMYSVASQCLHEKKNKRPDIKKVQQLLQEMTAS

SMILES: C[C@@H](NC(=O)Nc1cc2[nH]ncc2c(CO)n1)c1ccccc1 [ERKi]
- inhibition [1]: 4.36%
- residual activity [2, 46]: 85.5%
- residual activity [3, 46]: 100%
- residual activity [4, 46]: 97.9%
- inhibition [5]: 6.72%
- residual activity [6, 46]: 94.6%
- residual activity [7, 46]: 95.7%
- residual activity [8, 46]: 79.5%
- residual activity [9, 46]: 97.1%
- residual activity [10, 46]: 94.9%
- residual activity [11, 46]: 100%
- residual activity [12, 46]: 100%
- residual activity [13, 46]: 96.9%
- residual activity [14, 46]: 96.6%
- residual activity [15, 46]: 76%
- residual activity [16, 46]: 100%
- residual activity [17, 46]: 100%
- residual activity [18, 46]: 72.1%
- residual activity [19, 46]: 100%
- residual activity [20, 46]: 76.1%
- residual activity [21, 46]: 90.8%
- residual activity [22, 46]: 100%
- residual activity [23, 46]: 90.2%
- residual activity [24, 46]: 100%
- residual activity [25, 46]: 82.1%
- residual activity [26, 46]: 100%
- residual activity [27, 46]: 82.1%
- residual activity [28, 46]: 100%
- residual activity [29, 46]: 85.2%
- residual activity [30, 46]: 93.7%
- residual activity [31, 46]: 83.1%
- residual activity [32, 46]: 100%
- inhibition [33]: 10.3%
- residual activity [34, 46]: 84%
- residual activity [35, 46]: 94.1%
- residual activity [36, 46]: 100%
- residual activity [37, 46]: 86.7%
- residual activity [38, 46]: 100%
- residual activity [39, 46]: 91.2%
- residual activity [40, 46]: 100%
- residual activity [41, 46]: 100%
- residual activity [42, 46]: 90.7%
- residual activity [43, 46]: 88.5%
- residual activity [44, 46]: 100%
- IC50 [45]: 0.0018 µM (active)

SMILES: C[C@H](NC(=O)Nc1cc2[nH]ncc2c(CO)n1)c1ccccn1 [ERKi-NC]
- inhibition [1]: -0.282%
- residual activity [2, 47]: 87.9%
- residual activity [3, 47]: 100%
- residual activity [4, 47]: 84.1%
- inhibition [5]: 28.2%
- residual activity [6, 47]: 71.3%
- residual activity [7, 47]: 100%
- residual activity [8, 47]: 79.3%
- residual activity [9, 47]: 84.5%
- residual activity [10, 47]: 100%
- residual activity [11, 47]: 90.7%
- residual activity [12, 47]: 100%
- residual activity [13, 47]: 93.8%
- residual activity [14, 47]: 100%
- residual activity [15, 47]: 100%
- residual activity [16, 47]: 89%
- residual activity [17, 47]: 81.7%
- residual activity [18, 47]: 100%
- residual activity [19, 47]: 100%
- residual activity [20, 47]: 100%
- residual activity [21, 47]: 100%
- residual activity [22, 47]: 100%
- residual activity [23, 47]: 82.2%
- residual activity [24, 47]: 77.2%
- residual activity [25, 47]: 100%
- residual activity [26, 47]: 73.5%
- residual activity [27, 47]: 100%
- residual activity [28, 47]: 100%
- residual activity [29, 47]: 80.3%
- residual activity [30, 47]: 63.3%
- residual activity [31, 47]: 48.9%
- residual activity [32, 47]: 100%
- inhibition [33]: 22.9%
- residual activity [34, 47]: 100%
- residual activity [35, 47]: 95.3%
- residual activity [36, 47]: 95.1%
- residual activity [37, 47]: 100%
- residual activity [38, 47]: 96.9%
- residual activity [39, 47]: 100%
- residual activity [40, 47]: 100%
- residual activity [41, 47]: 85.5%
- residual activity [42, 47]: 100%
- residual activity [43, 47]: 100%
- residual activity [44, 47]: 51%
- IC50 [45]: 1.78 µM (not active)
